Data published in US9737523B2, “Anti-fibrogenic compounds, methods and uses thereof” (priority 2013, dated 2017).

Experiments:
[1] = system: A549; test: MMP-1 expression in lung epithelial carcinoma cell line A549, Western blot; format: cell-based, human; settings: A549, 12.5 to 150 μg/ml, 48 hours
Experimental: The squamous cell carcinoma (UMSCC) cell line derived from patients with head and neck cancer (ATCC™, Manassas, Va.) were maintained in RPMI-1640 medium with 10% FBS. The Human keratinocyte cell line HACAT (ATCC) and the carcinomic human alveolar basal epithelial cell line A549 (ATCC™) were cultured in DMEM with 10% FBS. The diploid lung fibroblasts IMR-90 (ATCC™) were maintained in Minimum Essential Medium (MEM, Invitrogen™) with 10% FBS.
Similarly, other cells such as synoviocytes, IMR-90, keratinocytes, UMSCC and A549 were treated with kynurenine at concentrations of 12.5 to 150 μg/ml in appropriate media for each cell type as described above for 48 hours. Cells were then harvested for western blot analysis.
Cells were harvested by Trypsin/EDTA and lysed with cell lysis buffer containing 50 mM Tris-HCl (pH7.40), 150 mM NaCl, 10 mM EDTA, 5 mM EGTA, 1% TritonX-100™, 0.5% Igepal CA-630, 0.025% NaN3 and protease inhibitor cocktail (Sigma™). Cell debris was removed by centrifugation at 20,000×g for 10 minutes. The protein concentration in supernatant was determined using the MicroBCA™ method (Pierce™, Rockford, Ill.). Proteins in supernatant were mixed with protein sample loading buffer (final concentration: 60 mM Tris-HCl (pH 6.80), 2% SDS, 10% glycerol, 1.5% β-mercaptoethanol, 0.002% bromophenol blue) and size fractioned by 10% of SDS-polyacrylamide gel. […]

[2] = system: MMP-3; test: MMP-3 expression in human dermal fibroblasts, Western blot; format: cell-based; settings: various concentrations, 48 hours, dose-dependent
Experimental: Cells were then harvested by trypsinization and western blot analysis was performed.
Cell debris was removed by centrifugation at 20,000×g for 10 minutes. The protein concentration in supernatant was determined using the MicroBCA™ method (Pierce™, Rockford, Ill.). Proteins in supernatant were mixed with protein sample loading buffer (final concentration: 60 mM Tris-HCl (pH 6.80), 2% SDS, 10% glycerol, 1.5% β-mercaptoethanol, 0.002% bromophenol blue) and size fractioned by 10% of SDS-polyacrylamide gel. After proteins were transferred onto nitrocellulose membrane by iBlot™ (Invitrogen Life Technologies™), non-specific binding were blocked with phosphate buffer saline twenty 20 (PBS-T) containing 5% skim milk for 1 hour. The membrane was then incubated with primary antibody overnight. After incubation with a secondary antibody for 1 hour, protein bands were visualized by an enhanced chemiluminescence (ECL™) detection system (Santa Cruz Biotechnology™, Santa Cruz, Calif.). […] The secondary antibodies were either goat anti-mouse IgG (H+L) HPR conjugate or goat anti-rabbit IgG (H+L) HPR conjugate (Bio-rad Laboratory™ (Mississauga, ON, Canada). Secondary antibodies were used at a concentration of 1:3000.

[3] = system: MMPs; test: MMP activity in conditioned media of fibroblasts, SensoLyte 520 generic MMP assay (FRET); format: cell-based, human; settings: 50 μg/ml, 48 hours
Experimental: The activity of MMPs was assessed using a F-FAM/QXL™ 520 fluorescence resonance energy transfer (FRET) peptide as the MMP substrate (SensoLyte 520™ generic MMP assay kit, AnaSpec, Inc.™, Fremont, Calif.) according to the manufacturer's protocol. In brief, cells were treated with or without 50 μg/ml of kynurenine for 48 hours. Conditioned media were collected and incubated with 1 mM of APMA (4-aminophenyl-mercuric acetate, in component C, AnaSpect™) at 37° C. for 3 hrs. After activation MMPs with APMA, 50 μl/well in 96-well plate of conditioned media was mixed with 50 μl of MMP substrate solution. After incubated at room temperature for 60 minutes, the fluorescence intensity at EX/EM=490 nm/520 nm in each sample including the substrate control were measured using Infinite F500™ fluorescence microplate reader (Tecan Group Ltd™, Morrisville, N.C.).

[4] = system: human dermal fibroblasts; test: MTT proliferation assay of human dermal fibroblasts; format: cell-based; settings: up to 150 μg/ml, 48 hours
Experimental: The effect of kynurenine on human dermal fibroblast proliferation was detected by MTT [3-(4,5-Dimethylthiazol-2-yl)-2,5-diphenyltetrazolium bromide] assay. In brief, 10,000 cells were seeded on a 24 well-plate and incubated with different concentrations of kynurenine for 48 hours. Media were removed and 0.2 ml of MTT (5 mg/ml in DMEM containing 2% FBS) was added. Cells were incubated with MIT for 4 hours. After washing 3 times with PBS, 0.2 ml of DMSO was added to dissolve the crystals. Absorbance was measured at 570 nm.

In the case of `Nc1ccccc1C(=O)CC(N)C(=O)O` (racemic) [kynurenine], the “MMP-1 expression versus untreated controls” value [1] is reported as “did not significantly differ”, the MMP-3 expression [2] is reported as “significantly increased” and the “mean activity of MMPs in conditioned media versus control media” value [3] is reported as “significantly higher”. For the same compound, the “fibroblast proliferation (MTT)” value [4] was “no significant effect”.
